In PubChem BioAssay AID1348 (Sanford-Burnham Center for Chemical Genomics, 2008):
Activity calls are given as the source filed them.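 The calls were made as follows: active = cell survival above 50% at 25 µM despite a drug that triggers cell death; inactive = the rest.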

Test system: CSM14.1 staurosporine-induced death rescue, ATPlite, 24 h
Test: staurosporine death rescue in CSM14.1 cells – cell-based, undifferentiated CSM14.1, ATP luminescence, selectivity assay for ER stress death inhibitor project, SAR follow-up (AID 1348)
Settings: at 25 µM; hits give high values

| Structure (SMILES) | survival |
| --- | --- |
| CSc1ccc(C2Nc3ccccc3NC3=C2C(=O)CC(c2ccccc2)C3)cc1 (stereo unspecified) | 8% (inactive) |
| COc1ccc(C2CC(=O)C3=C(C2)Nc2ccccc2NC3c2cccc(Oc3ccccc3)c2)cc1OC (stereo unspecified) | 11% (inactive) |
| COc1ccc(C2CC(=O)C3=C(C2)Nc2ccccc2NC3c2cccc(Br)c2)cc1OC (stereo unspecified) | 10% (inactive) |
| O=C1CC(c2ccccc2)CC2=C1C(c1c(F)cccc1Cl)Nc1ccccc1N2 (stereo unspecified) | 8% (inactive) |
| COc1ccc(C2CC(=O)C3=C(C2)Nc2ccccc2NC3c2cccc(C(F)(F)F)c2)cc1OC (stereo unspecified) | 10% (inactive) |
| COc1ccc(C2CC(=O)C3=C(C2)Nc2ccccc2NC3c2ccccc2C(F)(F)F)cc1OC (stereo unspecified) | 6% (inactive) |
| CCOc1cc(C2Nc3ccccc3NC3=C2C(=O)CC(c2ccc(OC)cc2)C3)cc(Cl)c1O (stereo unspecified) | 9% (inactive) |
| COc1ccc(C2CC(=O)C3=C(C2)Nc2ccccc2NC3c2cc(C)ccc2C)cc1 (stereo unspecified) | 9% (inactive) |
| CC1(C)CC(=O)C2=C(C1)Nc1ccccc1NC2c1ccc(-c2ccccc2)cc1 (stereo unspecified) | 13% (inactive) |
| CCOc1cccc(C2Nc3ccccc3NC3=C2C(=O)CC(c2ccc(OC)cc2)C3)c1 (stereo unspecified) | 8% (inactive) |
| CCCOc1ccc(C2Nc3ccccc3NC3=C2C(=O)CC(c2ccc(OC)c(OC)c2)C3)cc1 (stereo unspecified) | 12% (inactive) |
